# In PubChem BioAssay (NCI):
#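 Following 48 hours of exposure in 96-well plates, responses at five concentrations were used to interpolate endpoints linearly. TGI: total growth inhibition.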
# Assays:
# Assay in all cases: inhibition of tumour cell growth, NCI panel, 48 h
# [1] = test system: COLO 205 colon
# [2] = test system: HCT-116 colon
# [3] = test system: NCI/ADR-RES ovarian
# [4] = test system: HCT-15 colon
# [5] = test system: KM12 colon
# [6] = test system: HT29 colon
# [7] = test system: UACC-257 melanoma
# [8] = test system: TK-10 renal
# [9] = test system: HS 578T breast
# [10] = test system: OVCAR-8 ovarian
# [11] = test system: OVCAR-5 ovarian
# [12] = test system: M14 melanoma
# [13] = test system: MDA-MB-435
# [14] = test system: K-562 leukemia
# [15] = test system: MDA-MB-231 breast
# [16] = test system: MALME-3M melanoma
# [17] = test system: NCI-H226 lung
# [18] = test system: MCF7 breast
# [19] = test system: A549 NSCLC
SMILES,TGI [1] [µM],TGI [2] [µM],TGI [3] [µM],TGI [4] [µM],TGI [5] [µM],TGI [6] [µM],TGI [7] [µM],TGI [8] [µM],TGI [9] [µM],TGI [10] [µM],TGI [11] [µM],TGI [12] [µM],TGI [13] [µM],TGI [14] [µM],TGI [15] [µM],TGI [16] [µM],TGI [17] [µM],TGI [18] [µM],TGI [19] [µM]
C[C@@]12C[C@@H](c3ccccc3O1)N1CCSC1=N2,> 100,> 100,> 100,> 100,> 100,> 100,> 100,> 100,> 100,> 100,> 100,> 100,> 100,> 100,> 100,> 100,> 100,> 100,–
COc1ccc(-c2cn3c(nc4ccccc43)c(C)n2)cc1,> 100,> 100,> 100,> 100,> 100,> 100,> 100,> 100,> 100,> 96.6,> 100,> 100,> 100,> 100,> 100,> 100,> 100,> 100,> 100
COc1cc(/C=C2/C[C@H]3[C@@H]4CCC5=CC(=O)CC[C@]5(C)[C@H]4CC[C@]3(C)NC2=O)cc(OC)c1OC,44.4,> 100,> 100,> 100,> 100,> 100,> 100,56.2,73.9,70.7,57.7,> 100,> 100,–,83.2,72.2,> 100,88.9,> 100
CC(C)=C1C(=O)C[C@]2(C)C/C=C(\C)CC/C=C(\C)CC[C@@H]12,16.6,15.9,14.8,15.4,16.1,16.4,25.4,22.2,28,16,32.1,15.8,20,13.6,15.4,–,16,30.4,> 50
CCOC(=O)c1c(N2CCOCC2)[nH]c(=O)c(C(c2c(O)c(C(=O)OCC)c(N3CCOCC3)[nH]c2=O)C(C)C)c1O,> 100,> 100,> 100,> 100,> 100,> 100,> 100,> 100,> 100,> 100,> 100,> 100,> 100,> 100,> 100,> 100,> 100,> 100,> 100
Cc1cc2c(cc1Cl)SC(NN(C)C)=NS2(=O)=O,> 10,> 10,> 10,> 10,> 10,> 10,> 10,> 10,> 10,> 10,> 10,> 10,> 10,> 10,> 10,> 10,> 10,> 10,> 10
CC(C)(C)OC(=O)N1C[C@H](CC(=O)OCc2ccccc2)C[C@H]1C(=O)OCC(Cl)(Cl)Cl,9.38,> 50,> 50,> 50,> 50,> 50,31.3,> 50,> 50,> 50,> 50,> 50,> 50,> 50,> 50,25.3,29.1,> 50,> 50
